Like-named read-outs stand apart in the source and are kept apart here.
How the values were obtained:
IRAK4 [1] = molecular target: T1, IRAK4 (Homo sapiens (Human), UniProt Q9NWZ3); assay: IRAK4 MSD degradation in OCI-LY10; type: cell-based; conditions: MSD
How it was run: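 Remaining IRAK4 quantified by electrochemiluminescent MSD sandwich assay with two anti-IRAK4 antibodies. Compounds were dosed as 8 concentrations in 1:3 steps from a 1 to 10 μM final top on OCI-LY10 cells, incubated 4 to 24 h at 37° C. under 5% CO2. DC50 fitted with a three-parameter logistic curve.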

OCI-LY10 = assay: CTG Cell Viability Assay - OCI-LY10; type: cell-based, human; conditions: OCI-LY10, 4 days, read-out: CTG Cell Viability Assay - OCI-LY10: Average external-IC50
How it was run: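 Viability read by CellTiter-Glo luminescence after 4 days at 37° C under 5% CO2 with compound (top 10 μM final, 1:3 steps, 9 doses, DMSO 0.2%). Three-parameter logistic fit gave IC50.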

IRAK4 [2] = molecular target: T1, IRAK4; assay: IRAK4 degradation in human whole blood monocyte - flow cytometry; type: cell-based; conditions: read-out: IRAK4 degradation in whole blood monocyte-Flow cytometry: Average external Abs IC50
Method: (§1) Human whole blood IRAK4 degradation flow assay. Whole blood was collected in heparinized tubes and plated on the same day as draw (day 0). Whole blood was aliquoted into deep well plates. Compound plates were prepared and a 10 point, 5-fold dilution was performed with a final DMSO concentration of 0.1%. Compound was added to whole blood deep well plate, sealed and incubated at 37° C., 5% CO2 for 20 hours (for 4 hour treatment, compounds were prepared and added the following day). Following the treatment incubation period (day 1), BD lyse fix (BD #558049) was added to the whole blood plate, placed on plate shaker for 30 seconds and incubated for 10 mins at room temperature. Whole blood was then spun down and washed two times with PBS/0.5% BSA, aspirated to pellet and placed into −80° C. freezer until further processing for flow. On the flow run day, whole blood plates were thawed and samples were transferred to PCR plates. The pre-perm staining cocktail (CD3 Ax488/CD8 BUV805/CD14 BUV395/CD16/56 BV711/CD19 BV785) was added to samples and incubated for 30 minutes at room temperature. Samples were washed two times and permeabilized with Methanol for 10 minutes at 4° C. Samples were washed two times and the post-perm staining cocktail (CD4 PE/IRAK4 Ax647 BD #560315) was added and incubated for 30 minutes at room temperature. Samples were washed two times with PBS/BSA and run on a BD LSRFortessa. Mononuclear cells are gated by SSCH/FSCH and single cells. Monocytes are then gated through CD14 positive gate and lymphocytes are gated through CD14 negative gate. To determine absolute DC50 and max degradation values, MFI values were normalized to DMSO max and 20 hour 10 μM min control. Twenty hour dose curves were calculated using a 4 parameter logistic regression curve fit, no constraints (Top doses were removed if hook effects were observed and the bottom was constrained to 0).

IRAK4 [3] = molecular target: T1, IRAK4; assay: IRAK4 degradation in human whole blood lymphocyte - flow cytometry; type: cell-based; conditions: read-out: IRAK4 degradation in whole blood lymphocyte-Flow cytometry: Average external Abs IC50
Method: as §1

TNFα = assay: Human whole blood LPS TNFα assay; type: cell-based; conditions: 20 h pretreatment, LPS 5 h, read-out: IRAK4 human whole blood LPS TNFa inhibition: Average external-IC50
Method: Human Whole blood LPS TNFα assay. Whole blood was collected fresh and plated same day into 96 well plates at 180 μL per well. Compound plates were prepared in DMSO as 8-point dose curves in duplicate, starting dose 2 μM, 5-fold. Compounds are added 20 μL into blood for final 200 μL per well. Compound and cells were incubated at 37° C., 5% CO2 for 20 hours. After twenty hours of pretreatment with the compounds, LPS (01 1 1:B4) (Sigma #L2637) was added at 100 ng/ml final concentration and blood incubated an additional five hours at 37° C., 5% CO2. Following assay completion, whole blood plates were spun down at 2000 rpm for 15 minutes at 4° C. 50 μL of plasma was carefully removed and placed into a new 96 well Costar (#3879) plate and stored at −80° C. until further analysis. Meso scale Discovery (MSD) human V-plex assays were used to measure cytokine levels. On day of cytokine analysis, plasma samples were thawed, diluted with V-plex diluent #2, and directly to MSD plates. Assay was further completed per standard manufacturer's protocol. Cytokine data was normalized to LPS stimulated and unstimulated controls. Prism Graphpad was used to generate IC50 using 4 parameter logistic regression curve, free-fit.

[4] = OCI-LY10, 4 hrs, read-out: IRAK4 MSD degradation in OCI-LY10 at 4 hrs: Average external-Abs DC50

T1 sequence (Q9NWZ3 whole entry): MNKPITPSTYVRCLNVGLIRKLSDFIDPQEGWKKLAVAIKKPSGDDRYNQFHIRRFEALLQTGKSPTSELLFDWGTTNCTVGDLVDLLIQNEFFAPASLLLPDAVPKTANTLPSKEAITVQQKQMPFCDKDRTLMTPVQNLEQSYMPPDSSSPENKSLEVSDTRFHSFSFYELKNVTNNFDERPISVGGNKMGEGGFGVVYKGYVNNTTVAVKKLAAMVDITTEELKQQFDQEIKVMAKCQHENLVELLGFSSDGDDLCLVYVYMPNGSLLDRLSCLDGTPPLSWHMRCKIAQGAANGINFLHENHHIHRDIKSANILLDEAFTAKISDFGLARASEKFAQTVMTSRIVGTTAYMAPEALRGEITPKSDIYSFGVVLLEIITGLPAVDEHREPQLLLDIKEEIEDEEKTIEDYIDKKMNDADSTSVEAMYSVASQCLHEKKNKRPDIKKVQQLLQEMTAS

Row | Structure (SMILES) | DC50 (IRAK4 [1]; [4]) | IC50 (OCI-LY10; Homo sapiens, OCI-Ly10, 96 h) | IC50 (IRAK4 [2]) | DC50 (IRAK4 [3]) | IC50 (TNFα) | IC50 (OCI-LY10) | DC50 (IRAK4 [2]) | DC50 (IRAK4 [1]; OCI-LY10, 24 hrs, read-out: IRAK4 MSD degradation in OCI-LY10 at 24 hrs: Average external-Abs DC50)
1 | CN(C[C@H]1CN(CCCc2ccc3c(c2)n(C)c(=O)n3C2CCC(=O)NC2=O)CCO1)C(=O)[C@H]1CC[C@H](n2cc(NC(=O)c3coc(-c4ccnc(NCC5CC5)c4)n3)c(C(F)F)n2)CC1 (stereo partly drawn) [I-18] | < 10 nM | 50 to 100 nM | < 50 nM | 100 to 500 nM | 100 to 500 nM |  |  | 
2 | Cn1c(=O)n(C2CCC(=O)NC2=O)c2ccc(CCCCOCCCCNC[C@H]3CC[C@H](n4cc(NC(=O)c5coc(-c6ccnc(NCC(F)(F)F)c6)n5)c(C(N)=O)n4)CC3)cc21 (stereo partly drawn) [I-9] | < 10 nM | > 1000 nM | < 50 nM | 50 to 100 nM | > 1000 nM |  |  | 
3 | CN(CCCOCCCc1cccc2c1n(C)c(=O)n2C1CCC(=O)NC1=O)C(=O)[C@H]1CC[C@H](n2cc(NC(=O)c3coc(-c4ccnc(NCC(F)(F)F)c4)n3)c(C(N)=O)n2)CC1 (stereo partly drawn) [I-29] | < 10 nM |  |  | 500 to 1000 nM | > 1000 nM | > 1000 nM | 500 to 1000 nM | 
4 | CN(CC1CCN(CCC#Cc2ccc3c(c2)n(C)c(=O)n3C2CCC(=O)NC2=O)CC1)C(=O)[C@H]1CC[C@H](n2cc(NC(=O)c3coc(-c4ccnc(NCC5CC5)c4)n3)c(C(F)F)n2)CC1 (stereo partly drawn) [I-27] | < 10 nM | < 50 nM | < 50 nM | < 50 nM | 100 to 500 nM |  |  | 
5 | Cn1c(=O)n(C2CCC(=O)NC2=O)c2ccc(CCCOCCNC[C@H]3CC[C@H](n4cc(NC(=O)c5coc(-c6ccnc(NCC(F)(F)F)c6)n5)c(C(N)=O)n4)CC3)cc21 (stereo partly drawn) [I-8] | 10 to 100 nM | > 1000 nM | < 50 nM | < 50 nM | > 1000 nM |  |  | 
6 | Cn1c(=O)n(C2CCC(=O)NC2=O)c2cccc(CCCOCCOCCNC(=O)[C@H]3CC[C@H](n4cc(NC(=O)c5coc(-c6ccnc(NCC7CC7)c6)n5)c(C(F)F)n4)CC3)c21 (stereo partly drawn) [I-1] | < 10 nM | 50 to 100 nM |  | 100 to 500 nM |  |  | 100 to 500 nM | 10 to 100 nM
7 | CN(CCCOCCCc1cccc2c1n(C)c(=O)n2C1CCC(=O)NC1=O)C(=O)[C@H]1CC[C@H](n2cc(NC(=O)c3coc(-c4ccnc(NCC(F)(F)F)c4)n3)c(C(N)=O)n2)CC1 (stereo partly drawn) [I-28, N-[3-carbamoyl-1-[4-[3-[3-[1-(2,6-dioxo-3-piperidyl)-3-methyl-2-oxo-benzimidazol-4-yl]propoxy]propyl-methylcarbamoyl]cyclohexyl]pyrazol-4-yl]-2-[2-(2,2,2-trifluoroethylamino)-4-pyridyl]oxazole-4-carboxamide] | < 10 nM |  |  | 100 to 500 nM | > 1000 nM | < 50 nM | 50 to 100 nM | 
8 | NC(=O)c1nn([C@H]2CC[C@H](CNCCCOCCCc3cccc4c3oc(=O)n4C3CCC(=O)NC3=O)CC2)cc1NC(=O)c1coc(-c2ccnc(NCC(F)(F)F)c2)n1 (stereo partly drawn) [I-12] | 10 to 100 nM | 500 to 1000 nM |  | 100 to 500 nM | 500 to 1000 nM |  | 500 to 1000 nM | 
9 | Cn1c(=O)n(C2CCC(=O)NC2=O)c2cccc(CCCOCCOCCNC[C@H]3CC[C@H](n4cc(NC(=O)c5coc(-c6ccnc(NCC(F)(F)F)c6)n5)c(C(N)=O)n4)CC3)c21 (stereo partly drawn) [I-6] | < 10 nM | > 1000 nM | < 50 nM | < 50 nM | > 1000 nM |  |  | 
10 | O=C1CCC(n2c(=O)oc3c(CCCOCCNC(=O)[C@H]4CC[C@H](n5cc(NC(=O)c6coc(-c7ccnc(NCC8CC8)c7)n6)c(C(F)F)n5)CC4)cccc32)C(=O)N1 (stereo partly drawn) [I-5] | < 10 nM | < 50 nM |  | 100 to 500 nM | > 1000 nM |  | 100 to 500 nM | 
11 | O=C1CCC(n2c(=O)oc3cc(CCCOCCOCCNC[C@H]4CC[C@H](n5cc(NC(=O)c6coc(-c7ccnc(NCC8CC8)c7)n6)c(C(F)F)n5)CC4)ccc32)C(=O)N1 (stereo partly drawn) [I-3] | < 10 nM | > 1000 nM | < 50 nM | < 50 nM |  |  |  | 
